In patent US8840927B2, “Method of making anti-microbial polymeric surfaces” (Covalon Technologies Inc., priority 2001, dated 2014):
≈ marks a conversion by molar mass, not a printed value.

Assay: Aqueous solubility of photo-initiator
Type: physicochemical
Protocol: Pre-weighed silicone disks (approximately 0.7 cm in diameter, 0.2 cm in thickness) or cylindrical sections (approximately 0.5 cm in diameter, 1 cm in length) were incubated in a methanol solution of photo-initiator (BPB; or p-benzoyl benzoic acid, BBA) for 1 hour followed by air drying at about 40° C. for 2 hours. Samples were then suspended in vials containing 3 mL of aqueous monomer solution. When required, monomer solutions were saturated with BPB. The aqueous solubility of BPB was 4 μg/mL. All solutions were filtered through 0.22 μm pore filters prior to being flushed with nitrogen for 15 min. Vials were sealed with rubber septa and placed 2.5 cm beneath a pair of UVA bulbs (15 W ea.). Radiation intensity at the sample site was 3.8 mW/cm2 as determined by UV actinometry (16). After completion of the graft polymerization reaction, samples were briefly washed under running water with occasional scrubbing to remove any signs of adsorbed homopolymer. The remaining non-grafted material was removed by overnight incubation in 50% ethanol followed by a 4 hour incubation in water. Samples were dried in a 60° C. oven for 16 hours before their weights were determined using a microbalance. Quadruplicate samples of each treatment were analysed in all experiments.

SMILES: CC(C)(C)OOC(=O)c1ccc(C(=O)c2ccccc2)cc1 [BPB, p-benzoyl tert-butylperbenzoate]
- aqueous solubility: 4 µg/mL (≈ 13.4 µM)
